Patent publication US7071197B2, “N,N-disubstituted diazocycloalkanes” (Recordati S.A., priority 2002, dated 2006)

Assays:
human α1b-adrenoceptor = target: T1, human α1b-adrenoceptor (Homo sapiens, UniProt P35368); experiment: [3H]prazosin binding to cloned human α1-adrenoceptor subtypes (α1b); settings: for Ki: [3H]prazosin, CHO cell membranes, read-out: Binding affinity (Ki, nM) α1b; for α1b/5-HT1A: selectivity: ratio of Ki at α1b and Ki at 5-HT1A
T1 construct: expressed in transfected cells
T1 sequence (P35368 1-520): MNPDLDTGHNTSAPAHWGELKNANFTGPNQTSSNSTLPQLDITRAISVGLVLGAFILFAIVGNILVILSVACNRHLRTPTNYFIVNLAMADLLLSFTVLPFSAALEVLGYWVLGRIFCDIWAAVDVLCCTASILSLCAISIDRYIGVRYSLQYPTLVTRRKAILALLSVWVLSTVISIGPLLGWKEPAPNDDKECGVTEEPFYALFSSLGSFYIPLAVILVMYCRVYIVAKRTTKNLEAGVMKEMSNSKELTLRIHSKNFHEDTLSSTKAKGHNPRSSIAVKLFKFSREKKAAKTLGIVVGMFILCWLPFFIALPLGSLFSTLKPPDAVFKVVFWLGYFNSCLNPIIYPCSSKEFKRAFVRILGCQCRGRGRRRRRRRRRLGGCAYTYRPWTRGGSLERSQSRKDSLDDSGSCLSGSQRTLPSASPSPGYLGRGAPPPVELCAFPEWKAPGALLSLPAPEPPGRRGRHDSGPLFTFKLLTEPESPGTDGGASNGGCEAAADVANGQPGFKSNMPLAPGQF
Procedure: (§1) Binding to cloned human α1-adrenoceptor subtypes was performed in membranes from CHO cells (chinese hamster ovary cells) transfected by electroporation with DNA expressing the gene encoding each α1-adrenoceptor subtype. Cloning and stable expression of the human α1-adrenoceptor gene was performed as previously described (Testa et al. Pharmacol. Comm., 6: 79–86,1995).
(§2) CHO cells were grown in suspension in Iscove's modified Dulbecco's medium, supplemented with 10% fetal calf serum and gentamicin (50 μg/ml), at 37° C. in 7% CO2 in an humidified incubator. Cells were collected by centrifugation, lised in ice-cold Tris 5 mM and EDTA 5 mM buffer (pH 7.4) and gently homogenised. Homogenates were centrifuged at 40000×g×20 min and pellets were resuspended in a small volume of ice-cold Tris 5 mM and EDTA 5 mM buffer (pH 7.4) and immediately frozen and stored at −80° C. until use.
(§3) CHO cell membranes were resuspended and incubated in 50 mM Tris, pH 7.4, with 0.2 nM [^3H]prazosin, in a final volume of 1.02 ml for 30 min at 25° C., in absence or presence of competing drugs. Non-specific binding was determined in the presence of 10 μM phentolamine. The incubation was stopped by rapid filtration through 0.2% polyethyleneimine pretreated Schleicher & Schuell GF52 filters using a Tomtec (PerkinElmer) cell harvester. The filters were washed with 3×1 ml of ice-cold Tris buffer, dried and the radioactivity was measured in a Betaplate (Wallac) liquid scintillation counter.
(§4) The inhibition of specific binding by the compounds was analysed to estimate the IC50 value by the non-linear curve-fitting program Allfit (De Lean et al. Am. J. Physiol. 235, E97-E102, 1978). The IC50 value is converted to an affinity constant (Ki) by the equation of Cheng & Prusoff (Biochem. Pharmacol. 22: 3099–3108, 1973).

human α1a-adrenoceptor = target: T2, human α1a-adrenoceptor (Homo sapiens, UniProt P35348); experiment: [3H]prazosin binding to cloned human α1-adrenoceptor subtypes (α1a); settings: for Ki: [3H]prazosin, CHO cell membranes, read-out: Binding affinity (Ki, nM) α1a; for α1a/5-HT1A: selectivity: ratio of Ki at α1a and Ki at 5-HT1A
T2 construct: expressed in transfected cells
T2 sequence (P35348 1-466): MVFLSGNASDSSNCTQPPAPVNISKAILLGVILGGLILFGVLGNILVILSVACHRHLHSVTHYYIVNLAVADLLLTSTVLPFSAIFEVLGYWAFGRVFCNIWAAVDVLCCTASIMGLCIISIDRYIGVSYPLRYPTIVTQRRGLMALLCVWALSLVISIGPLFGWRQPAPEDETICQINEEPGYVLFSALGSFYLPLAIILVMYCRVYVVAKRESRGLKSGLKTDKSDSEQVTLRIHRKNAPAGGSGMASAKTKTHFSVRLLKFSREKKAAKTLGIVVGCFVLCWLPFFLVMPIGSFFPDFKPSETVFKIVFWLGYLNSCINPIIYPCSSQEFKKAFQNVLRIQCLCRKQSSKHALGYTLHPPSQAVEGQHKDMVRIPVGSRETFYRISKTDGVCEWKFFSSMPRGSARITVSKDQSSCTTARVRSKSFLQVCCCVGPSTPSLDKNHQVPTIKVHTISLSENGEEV
Procedure: as §1, §2, §3, §4

Ki (human α1b-adrenoceptor) [nM] | α1b/5-HT1A (human α1b-adrenoceptor) | Ki (human α1a-adrenoceptor) [nM] | α1a/5-HT1A (human α1a-adrenoceptor) | Compound
5.9 | 45 | 18 | 138 | COc1ccccc1N1CCN(CC[C@@H](c2ccccc2F)[C@H](O)C2CCCCC2)CC1 (racemic) [Ex. 1, 1-[(SR-RS)-4-cyclohexyl-4-hydroxy-3-(2-fluorophenyl)-butyl]-4-(2-methoxyphenyl)-piperazine]
12 | 18 | 51 | 78 | COc1ccccc1N1CCN(CC[C@H](c2ccccc2)[C@@H](O)C2CCCCC2)CC1 (racemic) [Ex. 5, 1-[(RS,SR)-4-Cyclohexyl-4-hydroxy-3-phenyl-butyl]-4-(2-methoxyphenyl)-piperazine, reference compound]
11 | 30 | 24 | 65 | COc1ccccc1N1CCN(CC[C@H](c2ccccc2F)[C@@H](O)C2CCCCC2)CC1 [Ex. 1Y, 1-[(3R,4S)-4-cyclohexyl-4-hydroxy-3-(2-fluorophenyl)-butyl]-4-(2-methoxyphenyl)-piperazine]
11 | 46 | 44 | 183 | COc1ccccc1N1CCN(CC[C@H](c2ccccc2F)[C@H](O)C2CCCCC2)CC1 [Ex. 2X, 1-[(3R,4R)-4-cyclohexyl-4-hydroxy-3-(2-fluorophenyl)-butyl]-4-(2-methoxyphenyl)-piperazine]
